According to ChEMBL document CHEMBL1126233, “Derivatives of naphthalimide: new potent conformationally restricted antagonists of 5-HT3 receptors” (Bioorg Med Chem Lett, 1992):

How the values were obtained:
[1] = biological target: T1, Serotonin 3 (5-HT3) receptor (Rattus norvegicus, UniProt P35563+Q9JJ16); assay: Binding affinity at 5-hydroxytryptamine 3 receptor in rat posterior cortex by [3H]-BRL 43694 displacement.; assay type: tissue-based, Brain
T1 sequence (P35563 whole entry): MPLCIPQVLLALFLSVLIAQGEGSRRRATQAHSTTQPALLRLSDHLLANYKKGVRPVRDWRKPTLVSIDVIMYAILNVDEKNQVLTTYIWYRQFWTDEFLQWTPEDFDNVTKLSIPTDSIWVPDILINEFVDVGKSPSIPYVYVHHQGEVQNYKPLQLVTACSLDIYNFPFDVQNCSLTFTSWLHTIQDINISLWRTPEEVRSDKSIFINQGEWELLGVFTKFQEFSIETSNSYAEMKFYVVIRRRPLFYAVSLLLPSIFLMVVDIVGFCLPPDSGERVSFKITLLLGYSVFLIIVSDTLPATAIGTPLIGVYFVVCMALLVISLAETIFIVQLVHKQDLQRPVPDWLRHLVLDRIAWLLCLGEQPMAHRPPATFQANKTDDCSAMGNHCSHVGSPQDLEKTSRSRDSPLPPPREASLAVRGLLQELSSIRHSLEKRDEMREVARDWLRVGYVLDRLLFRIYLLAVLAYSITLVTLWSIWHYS
T1 sequence (Q9JJ16 whole entry): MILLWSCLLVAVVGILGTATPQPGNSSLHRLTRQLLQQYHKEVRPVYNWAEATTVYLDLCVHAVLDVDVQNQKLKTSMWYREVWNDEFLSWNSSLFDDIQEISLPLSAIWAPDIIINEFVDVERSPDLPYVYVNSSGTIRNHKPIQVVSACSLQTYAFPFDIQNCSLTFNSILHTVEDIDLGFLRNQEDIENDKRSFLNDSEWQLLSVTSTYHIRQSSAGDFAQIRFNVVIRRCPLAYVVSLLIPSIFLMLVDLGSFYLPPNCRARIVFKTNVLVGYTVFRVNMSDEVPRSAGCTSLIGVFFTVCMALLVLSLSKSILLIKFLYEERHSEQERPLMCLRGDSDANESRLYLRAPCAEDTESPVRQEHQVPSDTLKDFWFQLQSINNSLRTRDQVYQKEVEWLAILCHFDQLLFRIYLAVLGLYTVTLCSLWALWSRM

Rattus norvegicus [2] = assay: Antagonism of the bradycardia induced by iv injection of 5-HT(10-30 ug/kg) was evaluated by the compound administration in rat; 12-55; assay type: functional; conditions: read-out: ID50 (the source's name)
Rattus norvegicus [3] = assay: Antagonism of the bradycardia induced by iv injection of 5-HT(10-30 ug/kg) was evaluated by the compound administration in rat; 82-190; assay type: functional; conditions: read-out: ID50 (the source's name)
Rattus norvegicus [4] = assay: Antagonism of the bradycardia induced by iv injection of 5-HT(10-30 ug/kg) was evaluated by the compound administration in rat; assay type: functional; conditions: read-out: ID50 (the source's name)
Rattus norvegicus [5] = assay: Antagonism of the bradycardia induced by iv injection of 5-HT(10-30 ug/kg) was evaluated by the compound administration in rat; 2.5-3.9; assay type: functional; conditions: read-out: ID50 (the source's name)
Rattus norvegicus [6] = assay: Antagonism of the bradycardia induced by iv injection of 5-HT(10-30 ug/kg) was evaluated by the compound administration in rat; 3.8-8.7; assay type: functional; conditions: read-out: ID50 (the source's name)
Rattus norvegicus [7] = assay: Antagonism of the bradycardia induced by iv injection of 5-HT(10-30 ug/kg) was evaluated by the compound administration in rat; 0.05-0.75; assay type: functional; conditions: read-out: ID50 (the source's name)
Rattus norvegicus [8] = assay: Antagonism of the bradycardia induced by iv injection of 5-HT(10-30 ug/kg) was evaluated by the compound administration in rat; 3-8; assay type: functional; conditions: read-out: ID50 (the source's name)
Rattus norvegicus [9] = assay: Antagonism of the bradycardia induced by iv injection of 5-HT(10-30 ug/kg) was evaluated by the compound administration in rat; 1.7-74; assay type: functional; conditions: read-out: ID50 (the source's name)
Rattus norvegicus [10] = assay: Antagonism of the bradycardia induced by iv injection of 5-HT(10-30 ug/kg) was evaluated by the compound administration in rat; 81-615; assay type: functional; conditions: read-out: ID50 (the source's name)
Rattus norvegicus [11] = assay: Antagonism of the bradycardia induced by iv injection of 5-HT(10-30 ug/kg) was evaluated by the compound administration in rat; 8-55; assay type: functional; conditions: read-out: ID50 (the source's name)
Rattus norvegicus [12] = assay: Antagonism of the bradycardia induced by iv injection of 5-HT(10-30 ug/kg) was evaluated by the compound administration in rat; 0.7-3.6; assay type: functional; conditions: read-out: ID50 (the source's name)
Rattus norvegicus [13] = assay: Antagonism of the bradycardia induced by iv injection of 5-HT(10-30 ug/kg) was evaluated by the compound administration in rat; 52-205; assay type: functional; conditions: read-out: ID50 (the source's name)
Rattus norvegicus [14] = assay: Antagonism of the bradycardia induced by iv injection of 5-HT(10-30 ug/kg) was evaluated by the compound administration in rat; 0.3-3.4; assay type: functional; conditions: read-out: ID50 (the source's name)

| Compound | Ki [1] | further results |
| --- | --- | --- |
| COc1ccccc1C(=O)NC1CN2CCC1CC2 (centres undefined) | 22 nM | ED50 (Rattus norvegicus [2]): 0.025 mg/kg |
| O=C1c2cccc3c(Cl)ccc(c23)C(=O)N1C1CN2CCC1CC2 (centres undefined) | 14 nM | ED50 (Rattus norvegicus [3]): 0.125 mg/kg |
| CN1CCC(N2C(=O)c3cccc4cccc(c34)C2=O)CC1 | 15 nM | ED50 (Rattus norvegicus [4]): 0.5 mg/kg |
| O=c1[nH]c2ccc(Cl)cc2c(=O)n1C1CN2CCC1CC2 (centres undefined) | 30 nM | ED50 (Rattus norvegicus [4]): 0.08 mg/kg |
| Nc1ccc2c3c(cccc13)C(=O)N(C1CN3CCC1CC3)C2=O (centres undefined) | 0.5 nM | ED50 (Rattus norvegicus [5]): 0.003 mg/kg |
| CN1C2CCC1CC(N1C(=O)c3cccc4cccc(c34)C1=O)C2 (centres undefined) | 374 nM | ED50 (Rattus norvegicus [4]): > 0.25 mg/kg |
| O=C1c2cccc3cccc(c23)C(=O)N1[C@H]1CN2CCC1CC2 | 0.9 nM | ED50 (Rattus norvegicus [6]): 0.0057 mg/kg |
| O=C1c2cccc3cccc(c23)CN1[C@H]1CN2CCC1CC2 | 2.3 nM |  |
| COc1cc(N)c(Cl)cc1C(=O)N[C@@H]1CN2CCC1CC2 | 0.2 nM | ED50 (Rattus norvegicus [7]): 0.0002 mg/kg |
| O=C1c2cccc3c([N+](=O)[O-])ccc(c23)C(=O)N1C1CN2CCC1CC2 (centres undefined) | 31 nM | ED50 (Rattus norvegicus [8]): 0.00525 mg/kg |
| O=C1c2cccc3cccc(c23)C(=O)N1C1CN2CCC1CC2 (centres undefined) | 2.7 nM | ED50 (Rattus norvegicus [9]): 0.011 mg/kg |
| O=C1c2cccc3cccc(c23)C(=O)N1[C@@H]1CN2CCC1CC2 | 61 nM | ED50 (Rattus norvegicus [10]): 0.224 mg/kg |
| O=C1c2cccc3c(Br)ccc(c23)C(=O)N1C1CN2CCC1CC2 (centres undefined) | 41 nM | ED50 (Rattus norvegicus [4]): > 0.25 mg/kg |
| Nc1ccc2c3c(cccc13)C(=O)N([C@@H]1CN3CCC1CC3)C2=O | 23.5 nM | ED50 (Rattus norvegicus [11]): 0.021 mg/kg |
| Nc1ccc2c3c(cccc13)C(=O)N([C@H]1CN3CCC1CC3)C2=O | 0.15 nM | ED50 (Rattus norvegicus [12]): 0.0016 mg/kg |
| O=c1[nH]c2ccccc2c(=O)n1C1CN2CCC1CC2 (centres undefined) | 80 nM | ED50 (Rattus norvegicus [13]): 0.103 mg/kg |
| O=C1c2cccc3cccc(c23)CN1[C@@H]1CN2CCC1CC2 | 2.2 nM |  |
| COc1cc(N)c(Cl)cc1C(=O)N[C@H]1CN2CCC1CC2 [(R)ZACOPRIDE] | 2.6 nM | ED50 (Rattus norvegicus [14]): 0.001 mg/kg |
